The text below walks through data of US20220354811A1, “METHODS AND COMPOSITIONS FOR MODULATING MACROPHAGES POLARIZATION” (INSERM (INSTITUT NATIONAL DE LA SANTÉ ET DE LA RECHERCHE …, priority 2019, published 2022).

For assay [1] the following is noted: several recent studies (Frenette 2019; Barreyro 2015; Baskin-Bey 2007); cited from earlier work.
The subject of assay [2] is IL4-polarized macrophages. The experiment in a line: mRNA expression in IL-4-polarized macrophages (RNAseq, qPCR). The class given is cell-based, human. On the procedure: Human monocytes were differentiated during 5 days with 50 ng/mL CSF-1 and then polarized into MO-macrophages (CSF-1) or M2-macrophages (IL-4) for 24 (mRNA) or 48 hours. […] The expression of the indicated mRNA is analyzed by qPCR (mean ±SEM of 6 independent experiments). *P<0.05, **P<0.01 according to a paired student t test (versus M2-macrophages).
The RNA integrity (RNA Integrity Score≥7.0) was checked on the Agilent 2100 Bioanalyzer (Agilent) and quantity was determined using Qubit (Invitrogen). SureSelect Automated Strand Specific RNA Library Preparation Kit was used according to manufacturer's instructions with the Bravo Platform. Briefly, 50 to 200 ng of total RNA sample was used for poly-A mRNA selection using oligo(dT) beads and subjected to thermal mRNA fragmentation. The fragmented mRNA samples were subjected to cDNA synthesis and were further converted into double stranded DNA using the reagents supplied in the kit, and the resulting dsDNA was used for library preparation. The final libraries were bar-coded, purified, pooled together in equal concentrations and subjected to paired-end sequencing on Novaseq-6000 sequencer (Illumina) at Gustave Roussy.
Quantification. Quality of raw FastQ files was assessed with Fastqc v0.11.8 and Fastq-screen v0.13.0. Quality report was gathered with MultiQC v1.8. Abundance estimation was performed with Salmon v0.14.1 using following parameters: —libType A —validateMappings —numBootstraps 60. Salmon index was created using Human Gencode reference annotation release 33 and using following parameters —gencode —keepDuplicates. Differential analysis. Statistical analysis was performed using R 3.6.1. Transcript expression levels were aggregated in gene expression levels using tximport v1.14.0 Bioconductor package. At this step only protein coding genes were considered. We also decided to keep only high quality annotations therefore genes annotated as “automated annotation” in GENCODE were discarded. DESeq2 v1.26.0 method was used to identify differentially expressed genes between groups with an adjusted p-value threshold of 0.05.
RNA was prepared from 5×10^6 cells using the RNeasy Mini Kit according to manufacturer's protocol (Qiagen, 74104). Each cDNA sample was prepared using AMV RT and random primers (Promega, M510F and C1181). Real-time polymerase chain reaction (PCR) was performed using the SyBR Green detection protocol (Life Technologies, 4367659). Briefly, 5 ng of total cDNA, 500 nM (each) primers, and 5 μL SyBR Green mixture were used in a total volume of 10 μL. Detection of multiple endogenous controls (ACTB, L32 and UBIQUITIN) were used to normalize the results. Specific forward and reverse primers are accessible upon request.

A further assay addresses T1, caspase 3 (Homo sapiens, UniProt P42574).
T1 sequence (P42574 29-175 limits assumed): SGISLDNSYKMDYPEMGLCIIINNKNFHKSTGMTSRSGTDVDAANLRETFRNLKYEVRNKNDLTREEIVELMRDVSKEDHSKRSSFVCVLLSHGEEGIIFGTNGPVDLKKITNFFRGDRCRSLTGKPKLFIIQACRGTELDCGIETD
T1 sequence (P42574 176-277 limits assumed): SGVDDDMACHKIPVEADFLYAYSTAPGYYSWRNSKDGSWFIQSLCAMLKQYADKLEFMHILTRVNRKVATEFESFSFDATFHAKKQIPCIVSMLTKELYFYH
The experiment in a line: Caspase 3 activity in untreated monocytes (Ac-DEVD-AMC substrate). It is filed as cell-based. More on the design: endogenous in cells; host or cells: primary human peripheral blood monocytes (CD14-selected, healthy donors). Conditions: all the concentrations tested, 1 day. On the procedure: FIG. 3. Both Q-VD-Oph and Emricasan hamper in the same way apoptosis in untreated monocytes. […] Measures of caspase-3 (DEVD-AMC) and caspase-8 (IETD-AMC) activities. The results are expressed as A.U./mg/min and represent the mean the mean±SD of 3 independent experiments performed in triplicate.
After stimulation, cells were lysed for 30 min at 4° C. in lysis buffer (50 mM HEPES pH 8, 150 mM NaCl, 20 mM EDTA, 1 mM PMSF, 10 μg/mL leupeptin, 10 μg/mL aprotinin and 0.2% Triton X-100) and lysates were cleared at 16 000 g for 15 min at 4° C. Each assay (in triplicate) was performed with 10 μg of protein prepared from control or stimulated cells. Briefly, cellular extracts were then incubated in a 96-well plate with 0.2 mM of DEVD-AMC (Caspase-3) or IETD-AMC (Caspase-8) as substrates for various times at 37° C. Caspase activity was measured either following emission at 460 nm (excitation at 390 nm) in the presence or not of 10 μM of DEVD-CHO or IETD-CHO. Enzyme activities were expressed in arbitrary units (A.U.) per min and per mg of proteins. The same protocol was used with 0.25 units of active recombinant caspase-8 (Enzo, ALX-201-062) or -3 (Enzo, ALX-201-059) in each triplicate.

In a further assay the test system is human primary monocytes. The note with it: literature (Jacquel et al., Blood 2009, Sci Reports 2018); cited from earlier work.
Setting [3] is: qPCR, Emricasan 3 μM added 16h before polarization.

For the molecule `C[C@H](NC(=O)C(=O)Nc1ccccc1C(C)(C)C)C(=O)N[C@@H](CC(=O)O)C(=O)COc1c(F)c(F)cc(F)c1F` [Emricasan, (S)-3-((S)-2-(2-((2-(tert-Butyl)phenyl)amino)-2-oxoacetamido)propanamido)-4-oxo-5-(2,3,5,6-tetrafluorophenoxy)pentanoic acid], the “liver functions in patients suffering liver diseases” value in assay [1] was “improve liver functions”. For the same molecule, in assay [2] (macrophages from three different donors), the “IL-4 induction of anti-inflammatory and repression of pro-inflammatory markers (RNAseq)” value is “counteracted”. In assay [2] (setting [3]), the “IL-4-increased CCL18 mRNA expression” value was “counteracted” and the “IL-4-increased CD200R mRNA expression” value was “counteracted”. Moreover, in assay [2] (qPCR, IL-4 combined with Emricasan 3 μM), the “CXCL8 mRNA level” value is “upregulated”. On caspase 3, the “caspase 3 activity in untreated monocytes” value is on record as “efficiently inhibited”.

Regarding `CC(C)[C@H](NC(=O)c1ccc2ccccc2n1)C(=O)N[C@@H](CC(=O)O)C(=O)COc1c(F)cccc1F` [Q-VD-OPh], in the assay on human primary monocytes, the “effect on CSF-1-induced monocyte differentiation” value is given as “inhibits”. The “caspase 3 activity in untreated monocytes” value at caspase 3 is recorded as “efficiently inhibited”.
